Results on 41 molecules are retold here after US8513232B2, “Substituted spirocyclic piperidine derivatives as histamine-3 (H3) receptor ligands” (Cephalon, Inc., priority 2008, dated 2013).

One data set concerns the target T1, human H3 receptor (Homo sapiens, UniProt Q9Y5N1).
T1 construct: expressed in transfected cells
The data set is described as follows: Human H3 radioligand binding ([3H]-N-alpha-methylhistamine, SPA). The conditions noted are these: Table C; human H3 binding; read-out: Human H3 Ki. In outline: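 Compounds (0.01 nM-30 μM) competed with approximately 1 nM [3H]-N-alpha-methylhistamine for human H3 receptor in membranes of stably transfected CHO cells, 10 μg protein per well, in Tris-HCl pH 7.4/MgCl2/BSA buffer for 4 h at room temperature. Bound radioligand measured by scintillation proximity; 10 μM clobenpropit gave non-specific binding.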

For data set [1], the target named is T2, rat histamine H3 receptor (Rattus norvegicus, UniProt Q9QYN8).
T2 construct: encoding the entire 445-amino-acid rat histamine H3 receptor; expressed in transfected cells; membrane preparation
Description: Rat H3 radioligand binding ([3H]-N-alpha-methylhistamine, SPA). The conditions noted are these: Table C, rat H3 binding, read-out: Rat H3 Ki. In outline:
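SPA-bead binding assay using [3H]-N-alpha-methylhistamine (approximately 1 nM final) with test compounds from 0.01 nM to 30 μM. Rat H3 receptor membranes came from stably transfected CHO-A3 cells; incubation ran 4 h at room temperature, in the dark, in Tris pH 7.4 buffer with MgCl2 and BSA. Clobenpropit (10 μM) gave non-specific binding.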

Structures are written as SMILES. Where two headings read alike, the source gives them in different places.

T2 sequence (Q9QYN8 whole entry): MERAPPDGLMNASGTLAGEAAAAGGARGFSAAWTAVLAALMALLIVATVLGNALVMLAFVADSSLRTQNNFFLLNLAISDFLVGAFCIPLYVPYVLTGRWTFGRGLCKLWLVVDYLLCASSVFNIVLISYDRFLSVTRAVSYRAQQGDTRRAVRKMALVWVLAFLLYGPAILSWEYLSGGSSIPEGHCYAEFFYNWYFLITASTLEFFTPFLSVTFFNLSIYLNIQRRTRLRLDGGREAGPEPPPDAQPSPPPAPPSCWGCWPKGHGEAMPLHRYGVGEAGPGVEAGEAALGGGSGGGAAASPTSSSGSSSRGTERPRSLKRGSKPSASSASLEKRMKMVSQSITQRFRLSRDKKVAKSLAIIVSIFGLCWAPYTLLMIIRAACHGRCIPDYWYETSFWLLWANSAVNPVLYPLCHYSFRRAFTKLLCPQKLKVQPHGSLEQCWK
T1 sequence (Q9Y5N1 whole entry): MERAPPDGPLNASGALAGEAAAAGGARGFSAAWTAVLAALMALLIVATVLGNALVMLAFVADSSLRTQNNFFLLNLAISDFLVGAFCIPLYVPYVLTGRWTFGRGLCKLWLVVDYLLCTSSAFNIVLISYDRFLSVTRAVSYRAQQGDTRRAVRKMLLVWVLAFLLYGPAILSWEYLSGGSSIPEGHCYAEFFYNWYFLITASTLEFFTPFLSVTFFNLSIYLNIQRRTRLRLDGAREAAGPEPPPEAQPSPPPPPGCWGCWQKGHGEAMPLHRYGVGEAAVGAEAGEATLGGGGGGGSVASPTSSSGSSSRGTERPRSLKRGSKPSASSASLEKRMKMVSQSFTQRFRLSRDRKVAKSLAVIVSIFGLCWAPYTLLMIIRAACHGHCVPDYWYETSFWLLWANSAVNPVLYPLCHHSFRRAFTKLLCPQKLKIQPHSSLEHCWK

As for `COC(=O)N1CCN(c2ccc3c(c2)CCC2(CCN(C4CCC4)CC2)O3)CC1` [Example 373], the melting point (in general, the temperature of the solid-liquid transition) was 157 to 158 °C. Besides, the Ki (usually the equilibrium dissociation constant of an inhibitor or competing ligand from its target) at human H3 receptor was less than 0.2 µM. Besides, the Ki in data set [1] was less than 0.2 µM.
Molecule `c1csc(N2CCN(c3ccc4c(c3)CCC3(CCN(C5CCC5)CC3)O4)CC2)n1` [Example 374] yielded a melting point of 182 to 184 °C. Besides, the Ki at human H3 receptor was less than 0.2 µM. Moreover, in data set [1], the Ki was less than 0.2 µM.
Take `CS(=O)(=O)N1CCN(c2ccc3c(c2)CCC2(CCN(C4CCC4)CC2)O3)CC1` [Example 375]: the melting point was in the range of 240 to 242 °C. In addition, on human H3 receptor, the Ki is less than 0.2 µM. In data set [1], the Ki was less than 0.2 µM.
With `O=C(C1CC1)N1CCN(c2ccc3c(c2)CCC2(CCN(C4CCC4)CC2)O3)CC1` [Example 376], the melting point fell in the range of 169 to 171 °C. The Ki at human H3 receptor is less than 0.2 µM. Also, the Ki in data set [1] was less than 0.2 µM.
Consider `c1cc2c(cc1N1CCNCC1)CCC1(CCN(C3CCC3)CC1)O2` [Example 377], for which the melting point fell in the range of 116 to 118 °C. Besides, the Ki on human H3 receptor was less than 0.2 µM. Further, the Ki in data set [1] was less than 0.2 µM.
For the molecule `CC(C)C(=O)N1CCN(c2ccc3c(c2)CCC2(CCN(C4CCC4)CC2)O3)CC1` [Example 381], the melting point lay within 173 to 175 °C. For the same molecule, the Ki at human H3 receptor was less than 0.2 µM. Further, the Ki in data set [1] is less than 0.2 µM.
For the molecule `COc1cccc(N2CCN(c3ccc4c(c3)CCC3(CCN(C5CCC5)CC3)O4)CC2)n1` [Example 382], the melting point lay in the range of 243 to 245 °C. Further, the Ki at human H3 receptor was less than 0.2 µM. In addition, the Ki in data set [1] was less than 0.2 µM.
With `CS(=O)(=O)c1ccc(N2CCN(c3ccc4c(c3)CCC3(CCN(C5CCC5)CC3)O4)CC2)nc1` [Example 383], the melting point lay within 258 to 260 °C. On human H3 receptor, the Ki is less than 0.2 µM. Moreover, the Ki in data set [1] is less than 0.2 µM.
`CCOC(=O)C1CCN(c2ccc3c(c2)CCC2(CCN(C4CCC4)CC2)O3)CC1` [Example 384]: the melting point is 256 to 258 °C. For the same molecule, the Ki on human H3 receptor was less than 0.2 µM. Further, the Ki in data set [1] was less than 0.2 µM.
`COC(=O)c1ccc(N2CCN(c3ccc4c(c3)CCC3(CCN(C5CCC5)CC3)O4)CC2)nc1` [Example 385] gave a melting point of 202 to 203 °C. Besides, at human H3 receptor, the Ki was less than 0.2 µM. The Ki in data set [1] was less than 0.2 µM.
`O=C(N1CCOCC1)N1CCN(c2ccc3c(c2)CCC2(CCN(C4CCC4)CC2)O3)CC1` [Example 386] showed a melting point of 292 to 294 °C. Besides, at human H3 receptor, the Ki is less than 0.2 µM. The Ki in data set [1] is less than 0.2 µM.
Consider `O=C(c1ccco1)N1CCN(c2ccc3c(c2)CCC2(CCN(C4CCC4)CC2)O3)CC1` [Example 387], for which the melting point lay within 133 to 135 °C. Further, the Ki on human H3 receptor was less than 0.2 µM. The Ki in data set [1] is less than 0.2 µM.
`O=C(N1CCCC1)N1CCN(c2ccc3c(c2)CCC2(CCN(C4CCC4)CC2)O3)CC1` [Example 388] yielded a melting point of 165 to 167 °C. On human H3 receptor, the Ki is less than 0.2 µM. Also, the Ki in data set [1] is less than 0.2 µM.
Molecule `Clc1ccc(N2CCN(c3ccc4c(c3)CCC3(CCN(C5CCC5)CC3)O4)CC2)nn1` [Example 389] showed a melting point of 229 to 231 °C. In addition, the Ki at human H3 receptor was less than 0.2 µM. In data set [1], the Ki is less than 0.2 µM.
The molecule `NC(=O)c1ccc(Oc2ccc3c(c2)CCC2(CCN(C4CCC4)CC2)O3)nc1` [Example 390] registered a melting point of 191 to 193 °C. Besides, the Ki at human H3 receptor is less than 0.2 µM. Besides, the inhibitory constant (Ki) in data set [1] was less than 0.2 µM.
Molecule `CCOC1CCN(c2ccc3c(c2)CCC2(CCN(C4CCC4)CC2)O3)CC1` [Example 391] gave a melting point of 285 to 290 °C. Further, the Ki on human H3 receptor is less than 0.2 µM. Also, in data set [1], the Ki was less than 0.2 µM.
For the molecule `CN(C)C(=O)N1CCN(c2ccc3c(c2)CCC2(CCN(C4CCC4)CC2)O3)CC1` [Example 392], the melting point is 272 to 274 °C. Besides, on human H3 receptor, the Ki was less than 0.2 µM. For the same molecule, the Ki in data set [1] is less than 0.2 µM.
As to `c1cc2c(cc1N1CCCCC1)CCC1(CCN(C3CCC3)CC1)O2` [Example 393], the melting point was > 280 °C (dec.). In addition, the Ki on human H3 receptor is less than 0.2 µM. Also, the Ki in data set [1] is less than 0.2 µM.
As to `CCN(CC)C(=O)N1CCN(c2ccc3c(c2)CCC2(CCN(C4CCC4)CC2)O3)CC1` [Example 394], the melting point is 272 to 274 °C. Also, the Ki on human H3 receptor is less than 0.2 µM. In data set [1], the Ki was less than 0.2 µM.
With `CC(=O)N1CCCN(c2ccc3c(c2)CCC2(CCN(C4CCC4)CC2)O3)CC1` [Example 395], the melting point was in the range of 276 to 278 °C. For the same molecule, the Ki at human H3 receptor is less than 0.2 µM. Besides, the Ki in data set [1] was less than 0.2 µM.
The molecule `CNC(=O)C1CCN(c2ccc3c(c2)CCC2(CCN(C4CCC4)CC2)O3)CC1` [Example 396] showed a melting point of 264 to 267 °C. Besides, the inhibitory constant (Ki) on human H3 receptor is less than 0.2 µM. Also, in data set [1], the Ki was less than 0.2 µM.
On to `FC1CCN(c2ccc3c(c2)CCC2(CCN(C4CCC4)CC2)O3)CC1` [Example 397], for which the melting point is > 265 °C (dec.). Moreover, at human H3 receptor, the Ki is less than 0.2 µM. For the same molecule, in data set [1], the Ki is less than 0.2 µM.
For the molecule `c1cc2c(cc1N1CCC3(CC1)OCCO3)CCC1(CCN(C3CCC3)CC1)O2` [Example 398], the melting point lay in the range of 135 to 137 °C. In addition, the Ki on human H3 receptor is less than 0.2 µM. For the same molecule, in data set [1], the Ki was less than 0.2 µM.
In the case of `O=C1CCN(c2ccc3c(c2)CCC2(CCN(C4CCC4)CC2)O3)CC1` [Example 399], the melting point was > 247 °C (dec.). Further, the Ki at human H3 receptor is less than 0.2 µM. In data set [1], the Ki is less than 0.2 µM.
Regarding `c1cnc(Oc2ccc3c(c2)CCC2(CCN(C4CCC4)CC2)O3)nc1` [Example 400], the melting point was in the range of 258 to 260 °C. For the same molecule, the Ki on human H3 receptor was 0.2 to 1 µM. Also, in data set [1] (given as numeric bound), the Ki was greater than 0.3 µM.
Consider `CNC(=O)c1ccc(Oc2ccc3c(c2)CCC2(CCN(C4CCC4)CC2)O3)nc1` [Example 401], for which the melting point was 245 to 247 °C. Further, the inhibition constant Ki on human H3 receptor is less than 0.2 µM. In addition, the Ki in data set [1] was less than 0.2 µM.
`c1cc2c(cc1N1CCOCC1)CCC1(CCN(C3CCC3)CC1)O2` [Example 403]: the melting point was > 285 °C (dec.). Moreover, the Ki at human H3 receptor was less than 0.2 µM. Further, the Ki in data set [1] was less than 0.2 µM.
Regarding `FC1(F)CCN(c2ccc3c(c2)CCC2(CCN(C4CCC4)CC2)O3)CC1` [Example 404], the melting point is > 283 °C (dec.). Moreover, the Ki at human H3 receptor was less than 0.2 µM. For the same molecule, the Ki in data set [1] was less than 0.2 µM.
In the case of `OC1CCN(c2ccc3c(c2)CCC2(CCN(C4CCC4)CC2)O3)CC1` [Example 405], the melting point is > 265 °C (dec.). Further, the Ki at human H3 receptor is less than 0.2 µM. In data set [1], the Ki is less than 0.2 µM.
As for `O=S1(=O)CCN(c2ccc3c(c2)CCC2(CCN(C4CCC4)CC2)O3)CC1` [Example 406], the melting point is > 285 °C (dec.). Besides, the Ki at human H3 receptor was less than 0.2 µM. In addition, the inhibition constant Ki in data set [1] was less than 0.2 µM.
`CN(C)C(=O)c1ccc(Oc2ccc3c(c2)CCC2(CCN(C4CCC4)CC2)O3)nc1` [Example 407] returned a melting point of 267 to 269 °C. Further, the Ki at human H3 receptor was less than 0.2 µM. In data set [1], the Ki lay in the range of 0.2 to 1 µM.
As to `CNC(=O)c1ccc(N2CCN(c3ccc4c(c3)CCC3(CCN(C5CCC5)CC3)O4)CC2)nc1` [Example 409], the melting point was in the range of 297 to 299 °C. Besides, the Ki at human H3 receptor is less than 0.2 µM. In addition, the Ki in data set [1] is less than 0.2 µM.
As to `c1ccc(OC2CCN(c3ccc4c(c3)CCC3(CCN(C5CCC5)CC3)O4)CC2)nc1` [Example 412], the melting point was in the range of 240 to 245 °C. Further, at human H3 receptor, the Ki is less than 0.2 µM. Also, the Ki in data set [1] was less than 0.2 µM.
As to `FC1(F)CCN(c2ccc3c(c2)CCC2(CCN(C4CCC4)CC2)O3)C1` [Example 413], the melting point was > 275 °C (dec.). The Ki at human H3 receptor was less than 0.2 µM. The Ki in data set [1] was less than 0.2 µM.
Molecule `F[C@@H]1CCN(c2ccc3c(c2)CCC2(CCN(C4CCC4)CC2)O3)C1` [Example 414] showed a melting point of 275 to 280 °C. Besides, the Ki at human H3 receptor was less than 0.2 µM. In addition, in data set [1], the Ki is less than 0.2 µM.
`c1cnc(Oc2ccc3c(c2)CCC2(CCN(C4CCC4)CC2)O3)cn1` [Example 415]: the melting point is 256 to 258 °C. Besides, the Ki on human H3 receptor was less than 0.2 µM. Besides, the Ki in data set [1] was less than 0.2 µM.
`COCCNC(=O)c1ccc(Oc2ccc3c(c2)CCC2(CCN(C4CCC4)CC2)O3)nc1` [Example 416] gave a melting point of 235 to 237 °C. Moreover, on human H3 receptor, the Ki was less than 0.2 µM. In addition, the Ki in data set [1] is less than 0.2 µM.
Take `CC(C)(C)OC(=O)N1CCC(Oc2ccc3c(c2)CCC2(CCN(C4CCC4)CC2)O3)CC1` [Example 417, 1′-cyclobutyl-6-(piperidine-1-carboxylic acid tert-butyl ester-4-yloxy)-3,4-dihydro spiro-[2H-benzopyran-2,4′-piperidine]]: the melting point lay in the range of 118 to 120 °C. Besides, the Ki at human H3 receptor is less than 0.2 µM. Besides, the Ki in data set [1] was less than 0.2 µM.
`O=C(C1CCN(c2ccc3c(c2)CCC2(CCN(C4CCC4)CC2)O3)CC1)N1CCCC1` [Example 418] registered a melting point of 290 to 292 °C. In addition, the Ki at human H3 receptor was less than 0.2 µM. Besides, in data set [1], the Ki was less than 0.2 µM.
In turn, `O=c1ccc(N2CCN(c3ccc4c(c3)CCC3(CCN(C5CCC5)CC3)O4)CC2)n[nH]1` [Example 419] had a melting point of 278 to 280 °C. Also, the Ki at human H3 receptor is less than 0.2 µM. The Ki in data set [1] was less than 0.2 µM.
As for `c1cc2c(cc1N1CCCC1)CCC1(CCN(C3CCC3)CC1)O2` [Example 420], the melting point is > 275 °C (dec.). Further, on human H3 receptor, the Ki was less than 0.2 µM. Also, the Ki in data set [1] was less than 0.2 µM.
